Experimental data from patent US20250381157A1, “ANTIMICROBIAL COMPOUNDS” (priority 2022, published 2025).
Where “and” joins values, the source holds several entries; their conditions need not be identical. Equal entries are not always repeated. Where two headings read alike, the source gives them in different places.

Key:
[1] = test system: Enterotoxigenic Escherichia coli (ETEC) (ATCC ® 35401 ™, H10407); format: in vivo, mouse; conditions: for Body weights (Final Day) (Mean ± SD) / Log10 CFU/g [Mean ± SD] Blood / Log10 CFU/g [Mean ± SD] Kidneys / Log10 CFU/g [Mean ± SD] Liver / Log10 CFU/g [Mean ± SD] Spleen / Kidney -Raw data on Vancomycin (32 μg/ml) plates / Liver-Raw data on Vancomycin (32 μg/ml) plates / Spleen -Raw data on Vancomycin (32 μg/ml) plates / Blood -Raw data on Vancomycin (32 μg/ml) plates - on day 7 PI: PO, twice daily(q12h), 9 days; for effect on bacterial translocation: presence of cyclophosphamide, FIG. 4; for Clinical observation (Mean Score) Hunched Posture / Clinical observation (Mean Score) Lethergy / Clinical observation (Mean Score) Rough coat / Clinical observation (Mean Score) hyperpnea: 0=absent 1=present; for Kidney -Raw data on Vancomycin (32 μg/ml) plates / Liver-Raw data on Vancomycin (32 μg/ml) plates / Spleen -Raw data on Vancomycin (32 μg/ml) plates / Blood -Raw data on Vancomycin (32 μg/ml) plates - on day 7 PI: individual animals
Procedure: FIG. 3: Schematic protocol for neutropenia mouse model
A schematic of the experimental model is depicted in FIG. 3.
That experiment was performed in the presence of cyclophosphamide, which is known to cause febrile neutropenia due to translocation of bacteria to vital organs.

[2] = biological target: T1, recombinant human HDAC1 (Homo sapiens, UniProt Q13547); assay: HDAC1 in-vitro enzymatic assay; format: biochemical
T1 construct: purchased BPS 50051
T1 sequence (Q13547 whole entry): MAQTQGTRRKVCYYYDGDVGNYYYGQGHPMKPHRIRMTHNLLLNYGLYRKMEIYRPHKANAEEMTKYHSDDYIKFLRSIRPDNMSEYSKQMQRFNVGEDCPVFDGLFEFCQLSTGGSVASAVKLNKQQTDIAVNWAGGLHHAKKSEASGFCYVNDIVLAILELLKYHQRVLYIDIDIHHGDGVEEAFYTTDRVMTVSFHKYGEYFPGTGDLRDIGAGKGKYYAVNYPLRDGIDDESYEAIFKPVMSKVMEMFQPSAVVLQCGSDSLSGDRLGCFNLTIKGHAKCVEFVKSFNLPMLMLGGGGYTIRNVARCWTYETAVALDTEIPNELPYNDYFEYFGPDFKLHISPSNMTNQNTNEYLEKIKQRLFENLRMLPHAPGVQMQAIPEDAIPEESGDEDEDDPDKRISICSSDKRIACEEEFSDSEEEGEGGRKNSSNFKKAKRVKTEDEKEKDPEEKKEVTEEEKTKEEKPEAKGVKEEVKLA
Procedure: (§1) All of the compounds were dissolved in DMSO. A series of dilutions of the compounds were prepared with 10% DMSO in HDAC assay buffer and 5 μl of the dilution was added to a 50 μl reaction so that the final concentration of DMSO was 1% in all of reactions. The compounds were pre-incubated in duplicate at RT for 30 minutes in a mixture containing HDAC assay buffer, 5 μg BSA, HDAC enzyme and a test compound. After 30 minutes, the enzymatic reactions were initiated by the addition of HDAC substrate to a final concentration of 20 μM or 2 μM. The enzymatic reaction proceeded for 30 minutes at 37° C. After enzymatic reactions, 50 μl of 2×HDAC Developer was added to each well for the HDAC enzymes and the plate was incubated at room temperature for an additional 15 minutes. Fluorescence intensity was measured at an excitation of 360 nm and an emission of 460 nm using a Tecan Infinite M1000 microplate reader.
(§2) HDAC activity assays were performed in duplicates at each concentration. The fluorescent intensity data were analyzed using the computer software, Graphpad Prism. […] The percent activity in the presence of each compound was calculated according to the following equation: % activity=(F−Fb)/(Ft−Fb), where F=the fluorescent intensity in the presence of the compound. […] The IC50 value was determined by the concentration causing a half-maximal percent activity.

[3] = biological target: T2, recombinant human HDAC2 (Homo sapiens, UniProt Q92769); assay: biochemical
T2 construct: purchased BPS 50002
T2 sequence (Q92769 whole entry): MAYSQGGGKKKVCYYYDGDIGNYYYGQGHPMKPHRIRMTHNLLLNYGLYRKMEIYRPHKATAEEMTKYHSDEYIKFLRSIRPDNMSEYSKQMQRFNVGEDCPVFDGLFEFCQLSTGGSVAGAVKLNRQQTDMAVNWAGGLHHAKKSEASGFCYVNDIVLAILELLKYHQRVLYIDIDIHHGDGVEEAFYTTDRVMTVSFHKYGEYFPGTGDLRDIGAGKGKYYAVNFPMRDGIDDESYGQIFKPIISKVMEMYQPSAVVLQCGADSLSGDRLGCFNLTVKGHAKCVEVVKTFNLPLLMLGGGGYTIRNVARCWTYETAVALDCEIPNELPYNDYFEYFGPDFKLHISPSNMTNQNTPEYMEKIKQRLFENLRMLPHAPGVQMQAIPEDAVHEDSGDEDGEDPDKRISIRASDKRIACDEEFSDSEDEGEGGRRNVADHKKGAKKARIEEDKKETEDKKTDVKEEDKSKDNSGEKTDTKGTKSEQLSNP
Procedure: as §1, §2

[4] = test system: bacteria in culture; assay: in vitro toxicity to bacteria in culture; format: cell-based
[5] = in vivo; conditions: mouse, po
[6] = Dose escalation toxicity and MTD in mouse; conditions: in vivo
[7] = Day (0), 5 mg/kg PO q12h 9 days
[8] = Day (0), 50 mg/kg PO q12h 9 days
[9] = Day (1), 5 mg/kg PO q12h 9 days
[10] = Day (1), 50 mg/kg PO q12h 9 days
[11] = Day (2), 5 mg/kg PO q12h 9 days
[12] = Day (2), 50 mg/kg PO q12h 9 days
[13] = Day (3), 5 mg/kg PO q12h 9 days
[14] = Day (3), 50 mg/kg PO q12h 9 days
[15] = Day (4), 5 mg/kg PO q12h 9 days
[16] = Day (4), 50 mg/kg PO q12h 9 days
[17] = Day (5), 5 mg/kg PO q12h 9 days
[18] = Day (5), 50 mg/kg PO q12h 9 days
[19] = Day (6), 5 mg/kg PO q12h 9 days
[20] = Day (6), 50 mg/kg PO q12h 9 days
[21] = Day (7), 5 mg/kg PO q12h 9 days
[22] = Day (7), 50 mg/kg PO q12h 9 days
[23] = Day (−1), 5 mg/kg PO q12h 9 days
[24] = Day (−1), 50 mg/kg PO q12h 9 days
[25] = Day (−2), 5 mg/kg PO q12h 9 days
[26] = Day (−2), 50 mg/kg PO q12h 9 days

C#CCOCC(=O)Nc1ccc(C(=O)Nc2ccccc2N)cc1 [Compound 1, N-(2-aminophenyl)-4-{2-[(prop-2-yn-1-yl)oxy]acetamido}benzamide]
Body weights (Final Day) (Mean ± SD) ([1]; 5 mg/kg): 25.2 ± 1.69
Log10 CFU/g [Mean ± SD] Blood ([1]; 5 mg/kg): 1.9 ± 0 Log10 CFU/g
Log10 CFU/g [Mean ± SD] Kidneys ([1]; 5 mg/kg): 2.83 ± 0.29^ns Log10 CFU/g
Log10 CFU/g [Mean ± SD] Liver ([1]; 5 mg/kg): 2.58 ± 0.32 Log10 CFU/g
Log10 CFU/g [Mean ± SD] Spleen ([1]; 5 mg/kg): 3.05 ± 0.3^ns Log10 CFU/g
effect on bacterial translocation ([1]; 5 mg/kg): little to no effect
Body weights (Final Day) (Mean ± SD) ([1]; 50 mg/kg): 26.1 ± 1.20
Log10 CFU/g [Mean ± SD] Blood ([1]; 50 mg/kg): BLOQ
Log10 CFU/g [Mean ± SD] Kidneys ([1]; 50 mg/kg): BLOQ
Log10 CFU/g [Mean ± SD] Liver ([1]; 50 mg/kg): BLOQ
Log10 CFU/g [Mean ± SD] Spleen ([1]; 50 mg/kg): BLOQ
effect on bacterial translocation ([1]; 50 mg/kg): inhibits it completely
Clinical observation (Mean Score) Hunched Posture [1, 7]: 0.0
Clinical observation (Mean Score) Lethergy [1, 7]: 0.0
Clinical observation (Mean Score) Rough coat [1, 7]: 0.0
Clinical observation (Mean Score) hyperpnea [1, 7]: 0.0
Clinical observation (Mean Score) Hunched Posture [1, 8]: 0.0
Clinical observation (Mean Score) Lethergy [1, 8]: 0.0
Clinical observation (Mean Score) Rough coat [1, 8]: 0.0
Clinical observation (Mean Score) hyperpnea [1, 8]: 0.0
Clinical observation (Mean Score) Hunched Posture [1, 9]: 0.0
Clinical observation (Mean Score) Lethergy [1, 9]: 0.0
Clinical observation (Mean Score) Rough coat [1, 9]: 0.0
Clinical observation (Mean Score) hyperpnea [1, 9]: 0.0
Clinical observation (Mean Score) Hunched Posture [1, 10]: 0.0
Clinical observation (Mean Score) Lethergy [1, 10]: 0.0
Clinical observation (Mean Score) Rough coat [1, 10]: 0.0
Clinical observation (Mean Score) hyperpnea [1, 10]: 0.0
Clinical observation (Mean Score) Hunched Posture [1, 11]: 0.0
Clinical observation (Mean Score) Lethergy [1, 11]: 0.0
Clinical observation (Mean Score) Rough coat [1, 11]: 0.0
Clinical observation (Mean Score) hyperpnea [1, 11]: 0.0
Clinical observation (Mean Score) Hunched Posture [1, 12]: 0.0
Clinical observation (Mean Score) Lethergy [1, 12]: 0.0
Clinical observation (Mean Score) Rough coat [1, 12]: 0.0
Clinical observation (Mean Score) hyperpnea [1, 12]: 0.0
Clinical observation (Mean Score) Hunched Posture [1, 13]: 0.0
Clinical observation (Mean Score) Lethergy [1, 13]: 0.0
Clinical observation (Mean Score) Rough coat [1, 13]: 0.0
Clinical observation (Mean Score) hyperpnea [1, 13]: 0.0
Clinical observation (Mean Score) Hunched Posture [1, 14]: 0.0
Clinical observation (Mean Score) Lethergy [1, 14]: 0.0
Clinical observation (Mean Score) Rough coat [1, 14]: 0.0
Clinical observation (Mean Score) hyperpnea [1, 14]: 0.0
Clinical observation (Mean Score) Hunched Posture [1, 15]: 0.0
Clinical observation (Mean Score) Lethergy [1, 15]: 0.0
Clinical observation (Mean Score) Rough coat [1, 15]: 0.0
Clinical observation (Mean Score) hyperpnea [1, 15]: 0.0
Clinical observation (Mean Score) Hunched Posture [1, 16]: 0.0
Clinical observation (Mean Score) Lethergy [1, 16]: 0.0
Clinical observation (Mean Score) Rough coat [1, 16]: 0.0
Clinical observation (Mean Score) hyperpnea [1, 16]: 0.0
Clinical observation (Mean Score) Hunched Posture [1, 17]: 0.0
Clinical observation (Mean Score) Lethergy [1, 17]: 0.1
Clinical observation (Mean Score) Rough coat [1, 17]: 0.5
Clinical observation (Mean Score) hyperpnea [1, 17]: 0.0
Clinical observation (Mean Score) Hunched Posture [1, 18]: 0.0
Clinical observation (Mean Score) Lethergy [1, 18]: 0.0
Clinical observation (Mean Score) Rough coat [1, 18]: 0.0
Clinical observation (Mean Score) hyperpnea [1, 18]: 0.0
Clinical observation (Mean Score) Hunched Posture [1, 19]: 0.0
Clinical observation (Mean Score) Lethergy [1, 19]: 0.4
Clinical observation (Mean Score) Rough coat [1, 19]: 0.7
Clinical observation (Mean Score) hyperpnea [1, 19]: 0.0
Clinical observation (Mean Score) Hunched Posture [1, 20]: 0.0
Clinical observation (Mean Score) Lethergy [1, 20]: 0.0
Clinical observation (Mean Score) Rough coat [1, 20]: 0.4
Clinical observation (Mean Score) hyperpnea [1, 20]: 0.0
Clinical observation (Mean Score) Hunched Posture [1, 21]: 0.0
Clinical observation (Mean Score) Lethergy [1, 21]: 0.5
Clinical observation (Mean Score) Rough coat [1, 21]: 1.0
Clinical observation (Mean Score) hyperpnea [1, 21]: 0.0
Clinical observation (Mean Score) Hunched Posture [1, 22]: 0.0
Clinical observation (Mean Score) Lethergy [1, 22]: 0.0
Clinical observation (Mean Score) Rough coat [1, 22]: 0.4
Clinical observation (Mean Score) hyperpnea [1, 22]: 0.0
Clinical observation (Mean Score) Hunched Posture [1, 23]: 0.0
Clinical observation (Mean Score) Lethergy [1, 23]: 0.0
Clinical observation (Mean Score) Rough coat [1, 23]: 0.0
Clinical observation (Mean Score) hyperpnea [1, 23]: 0.0
Clinical observation (Mean Score) Hunched Posture [1, 24]: 0.0
Clinical observation (Mean Score) Lethergy [1, 24]: 0.0
Clinical observation (Mean Score) Rough coat [1, 24]: 0.0
Clinical observation (Mean Score) hyperpnea [1, 24]: 0.0
Clinical observation (Mean Score) Hunched Posture [1, 25]: 0.0
Clinical observation (Mean Score) Lethergy [1, 25]: 0.0
Clinical observation (Mean Score) Rough coat [1, 25]: 0.0
Clinical observation (Mean Score) hyperpnea [1, 25]: 0.0
Clinical observation (Mean Score) Hunched Posture [1, 26]: 0.0
Clinical observation (Mean Score) Lethergy [1, 26]: 0.0
Clinical observation (Mean Score) hyperpnea [1, 26]: 0.0
Bacteria in treated animals ([1]; day 7, compound 1 at 50 mg/kg): BLOQ
antibacterial effect in liver and blood compared to vehicle controls ([1]; day 7, p<0.05): significant dose dependent antibacterial effect
Kidney -Raw data on Vancomycin (32 μg/ml) plates ([1]; 5 mg/kg): 2.73 Log10 CFU/g and 3.23 Log10 CFU/g and 2.66 Log10 CFU/g and 2.94 Log10 CFU/g and 3.34 Log10 CFU/g and 2.68 Log10 CFU/g and 2.59 Log10 CFU/g and 2.54 Log10 CFU/g and 2.75 Log10 CFU/g and BLOQ
Liver-Raw data on Vancomycin (32 μg/ml) plates ([1]; 5 mg/kg): 2.67 Log10 CFU/g and 2.41 Log10 CFU/g (2×) and 3.42 Log10 CFU/g and 2.33 Log10 CFU/g and 2.39 Log10 CFU/g (2×) and 2.53 Log10 CFU/g and 2.61 Log10 CFU/g and 2.57 Log10 CFU/g
Spleen -Raw data on Vancomycin (32 μg/ml) plates ([1]; 5 mg/kg): 3.04 Log10 CFU/g and 3.00 Log10 CFU/g and 3.51 Log10 CFU/g and 2.62 Log10 CFU/g and BLOQ (4×) and 2.91 Log10 CFU/g and 3.17 Log10 CFU/g
Kidney -Raw data on Vancomycin (32 μg/ml) plates ([1]; 50 mg/kg): BLOQ
Liver-Raw data on Vancomycin (32 μg/ml) plates ([1]; 50 mg/kg): BLOQ
Spleen -Raw data on Vancomycin (32 μg/ml) plates ([1]; 50 mg/kg): BLOQ
Blood -Raw data on Vancomycin (32 μg/ml) plates - on day 7 PI ([1]; 5 mg/kg): 1.90 Log10 CFU/g
Blood -Raw data on Vancomycin (32 μg/ml) plates - on day 7 PI ([1]; 5 mg/kg, 5 mg/kg): BLOQ
Blood -Raw data on Vancomycin (32 μg/ml) plates - on day 7 PI ([1]; 50 mg/kg): BLOQ
clinical condition of animals ([1]; treated groups): apparently normal
IC50 [2]: < 1000 nM
inhibition at 1 µM ([2]; @ 1 μM, read-out: Inhib. HDAC1): 75%
IC50 [3]: ~1200 nM
toxicity to bacteria in culture [4]: not toxic
MTD at 7 days ([5]; 7 Days PO once daily MTD - mouse): > 50 mg/kg
MTD at 7 days ([5]; 7 Days PO twice daily MTD - mouse): 50 mg/kg
Dose Esc. Tox mouse iv ([6]; iv): 100 mg/kg
Dose Esc. Tox mouse PO ([6]; po): 50 mg/kg
